Results on 12 molecules are retold here after patent US9686971B2, “Methods for testing anti-thrombotic agents” (The Trustees of Columbia University in the City of New York, priority 2006, dated 2017).

“Also recorded” adds a separate entry of the source. Bounds are passed on as bounds.

Data set [1] concerns thrombus formation. The note with it: mice; given the day before and 2 hours prior; cited from earlier work.
The target in data set [2] is T1, GPIb alpha (Homo sapiens, UniProt P07359).
T1 construct: enables evaluation of GPIb alpha in its native form (i.e. correct orientation and proper post-translational modification); endogenous in cells; host or cells: human platelets purified by gel filtration, immobilized on Fab fragments of mAb 7E3
As to the kind of experiment: Transient tether kinetics of VWF-A1 coated microspheres on surface-immobilized human platelets. The data set is classed as binding. Particulars: VWF-A1 coated beads, wall shear stress 1 dyn cm^−2. The method, then:
In flow assays involving protein-coated microspheres, human or murine platelets purified by gel filtration are incubated with 10 mM sodium azide (NaN3), 50 ng/ml prostaglandin E1, and 10 μm indomethacin (Sigma Immunochemicals, St. Louis, Mo.) to reduce the possibility of activation and potential alterations in expression and/or distribution of GPIb alpha on their surface. Platelets are subsequently allowed to settle in stasis on Fab fragments of monoclonal antibodies that recognize either human (i.e., mAb 7E3) or murine (i.e., mAb NAD-1) alpha IIb/β3 in order to form a reactive substrate. […] Platelet coverage of <10% will be bound in this manner can remain relatively unactivated for up to 30 min as evident by morphology on light microscopic examination (FIG. 7A) and lack of expression of P-selectin by fluorescence microscopy (FIG. 7B).
To reduce the possibility of multiple bond formation that would result in a prolongation in interaction times between the beads and immobilized platelets, the lowest site densities of VWF-A1 capable of supporting these brief interactions is used, a value we found to correspond to ˜30 molecules μm^2. […] The force acting on the tether bond was calculated from force balance equations as stated above and koff plotted as a function of these forces. […]

For data set [3], the system named is human platelets. Particulars: cited from earlier work.
The subject of data set [4] is murine platelets. In words: Ristocetin-induced platelet aggregation assay (RIPA), murine platelet rich plasma. In kind it is cell-based, mouse. Here is the method:
In a Ristocetin-induced platelet aggregation assays, platelet GPIb alpha binding to wild type human VWF or mouse VWF was analyzed in the absence or presence of ristocetin as described by Inbal, et al. (1993, Thromb. Haemost., 70:1058-1062). In this method, platelet rich plasma (PRP) is placed in a clear cuvette containing a stir bar and inserted into the aggregometer. Platelet aggregation is induced by the addition of ristocetin. […] In fact, only at concentrations of ≧2.5 mg/ml was there any evidence of murine platelet aggregation observed (˜30%, FIG. 10C).

In data set [5] the test system is human platelets. In words: Ex vivo platelet adhesion, human whole blood over immobilized plasma VWF or rVWF-A1, 1600 s^-1. The note with it: for human platelet deposition as compared with same-species controls / human platelet accumulation on immobilized protein: human whole blood; for human platelet deposition as compared with same-species controls: 1600 s^-1, 4 min; for translocation velocities of human platelets: mean±s.e.m, n=4; for human platelet accumulation on immobilized protein: 1600 s^-1. The data set is classed as cell-based. The method, then:
(§1) Experiments were performed in a parallel-plate flow chamber as previously described (Offermanns, S. (2006) Circ. Res. 99, 1293-1304). For studies involving plasma VWF, a polyclonal anti-VWF antibody (Dako) was absorbed overnight (4° C.) to a six well tissue culture plate. Subsequently, the plate was washed and non-specific interactions blocked by the addition of TBS containing 3% BSA, pH 7.4 (1 h, 37° C.). Human or murine plasma obtained from heparinized whole blood was added and the plates placed at 37° C. for an additional 2 h. Generation, purification, and surface-immobilization of recombinant VWF-A1 proteins was performed as previously described (Doggett, T. A. et al. Biophys. J. 83, 194-205 (2002)). Both human and murine VWF-A1 constructs consist of amino acid residues 1238 to 1471, with a single intra-disulfide bond formed between residues 1272 and 1458 and were generated in bacteria. Citrated whole blood (150 μl) collected via cardiac puncture from anesthetized homozygous VWF^1326R>H or WT mice or from venopuncture from human volunteers was perfused over the immobilized substrates at a wall shear rate of 1600 s^−1 for 4 min, followed by washing with Tyrode's buffer under the identical flow conditions. The number of platelets attached per unit area (0.07 mm^2) and translocation velocities were determined by off-line analysis (Image-Pro Plus, Media Cybernetics). For GPIbα inhibition studies, the function-blocking mAb 6D1 (20 μg/ml) or mAb SZ2 (20 μg/ml; Beckman Coulter) was added to anticoagulated human blood for 30 min prior to use. Experiments were performed in triplicate on two separate days. An ELISA was used to ensure equivalent coating concentration of plasma and recombinant proteins (Denis, C. et al. (1998) Proc. Natl. Acad. Sci. USA 95, 9524-9529).

The conditions of data set [6]: in vivo; cited from earlier work.
In data set [7] the test system is murine platelets. In words: Ex vivo platelet adhesion, murine whole blood over immobilized plasma VWF or rVWF-A1, 1600 s^-1. In kind it is cell-based, mouse. Here is the method:
as §1, with “For GPIbα inhibition studies, the function-blocking mAb 6D1 (20 μg/ml) or mAb SZ2 (20 μg/ml; Beckman Coulter) was added to anticoagulated human blood for 30 min prior to use. Experiments were performed in triplicate on two separate days. An ELISA was used to ensure equivalent coating concentration of plasma and recombinant proteins (Denis, C. et al. (1998) Proc. Natl. Acad. Sci. USA 95, 9524-9529).” left out

For data set [8], the system named is human platelets. As to the kind of experiment: In vitro parallel plate flow chamber platelet adhesion on recombinant VWF-A1, 800 s^-1, human platelets. In kind it is cell-based. Particulars: wall shear rate 800 s^-1. Here is the method: (§2) The protein was subsequently used in a series of in vitro flow chamber assays to assess function. Washed human or murine platelets (5×10^7/ml) were infused through a parallel plate flow chamber containing glass cover slips coated with either human VWF-A1 or mouse VWF-A1 protein (100 μg/ml final concentration) at a shear rate of 800 s^−1. After 5 min of continuous flow, adherent platelets were quantified.
Support for this hypothesis is provided by mutagenesis studies. By analyzing the data obtained from the crystal structure of the murine VWF-A1 domain, we have identified several residues that may participate in interactions with GPIb alpha (FIG. 15C). Residue 1326 was initially chosen for study and was mutated to the corresponding amino acid at the identical location in its human counterpart (from Arg to His). Subsequently, the ability of murine and human platelets to interact with this mutant protein substrate was evaluated at a wall shear rate of 800 s^−1. Incorporation of a histidine for arginine at position 1326 in murine VWF-A1 reduced murine platelet adhesion by ˜5-fold and increased translocation velocities of cells by ˜7-fold as compared to the WT mouse protein (FIGS. 13A, 13B, 16A, and 16B). […] These studies support the hypothesis that from a structural and functional standpoint, mouse and human VWF-A1 are very similar.

Data set [9] concerns murine platelets. As to the kind of experiment: In vitro parallel plate flow chamber platelet adhesion on recombinant VWF-A1, 800 s^-1, murine platelets. The data set is classed as cell-based, mouse. Particulars: wall shear rate 800 s^-1. Here is the method:
as §2
In the case of the latter, the murine A1 fragment was inserted into pET-11b (Stratagene) and purified as previously described (53).
Support for this hypothesis is provided by mutagenesis studies. By analyzing the data obtained from the crystal structure of the murine VWF-A1 domain, we have identified several residues that may participate in interactions with GPIb alpha (FIG. 15C). Residue 1326 was initially chosen for study and was mutated to the corresponding amino acid at the identical location in its human counterpart (from Arg to His). Subsequently, the ability of murine and human platelets to interact with this mutant protein substrate was evaluated at a wall shear rate of 800 s^−1. Incorporation of a histidine for arginine at position 1326 in murine VWF-A1 reduced murine platelet adhesion by ˜5-fold and increased translocation velocities of cells by ˜7-fold as compared to the WT mouse protein (FIGS. 13A, 13B, 16A, and 16B). […]

T1 sequence (P07359 17-652): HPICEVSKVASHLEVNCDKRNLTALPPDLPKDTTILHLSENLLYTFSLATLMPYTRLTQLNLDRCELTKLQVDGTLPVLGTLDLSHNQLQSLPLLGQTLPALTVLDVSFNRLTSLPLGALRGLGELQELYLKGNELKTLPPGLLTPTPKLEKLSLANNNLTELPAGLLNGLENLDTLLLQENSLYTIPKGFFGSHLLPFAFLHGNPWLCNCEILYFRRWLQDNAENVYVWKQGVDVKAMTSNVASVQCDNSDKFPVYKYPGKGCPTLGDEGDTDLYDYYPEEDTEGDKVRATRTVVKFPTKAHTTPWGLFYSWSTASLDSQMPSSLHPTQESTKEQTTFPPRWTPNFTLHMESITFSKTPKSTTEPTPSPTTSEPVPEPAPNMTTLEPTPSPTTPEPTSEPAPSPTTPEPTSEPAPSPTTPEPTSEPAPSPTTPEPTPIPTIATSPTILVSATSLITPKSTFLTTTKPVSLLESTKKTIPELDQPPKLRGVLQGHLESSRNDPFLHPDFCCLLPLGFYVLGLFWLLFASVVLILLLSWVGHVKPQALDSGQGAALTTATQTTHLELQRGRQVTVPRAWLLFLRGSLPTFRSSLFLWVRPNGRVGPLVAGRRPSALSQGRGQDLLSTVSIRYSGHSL

With `COC(=O)[C@H](c1ccccc1Cl)N1CCc2sccc2C1` [clopidogrel], the “maximal effective dose to reduce thrombus size and delay its formation” value in [1] is given as 50 mg/kg. “WT human VWF-A1: wild type recombinant human VWF-A1 domain” yielded a koff in [2] of 6.5 s⁻¹.

As to ristocetin, the “concentration known to cause agglutination of human platelets” value in data set [3] was about 1.0 mg/mL. Further, the “effect on murine platelets at the concentration that agglutinates human platelets” value in data set [4] (murine PRP, ristocetin ~1.0 mg/ml) is given as “no such effect; also recorded: had no effect”. Moreover, the platelet aggregation in [4] (murine PRP, ristocetin ≧2.5 mg/ml) was about 30%. Turning to “murine plasma VWF: surface-bound wild type murine plasma VWF”, the “human platelet deposition as compared with same-species controls” value in [5] was 10%. As for `CCCCS(=O)(=O)N[C@@H](Cc1ccc(OCCCCC2CCNCC2)cc1)C(=O)O` [Tirofiban], in data set [6], the plasma half-life result is reported as “approximately 2 hours”. Take “human plasma VWF: native human plasma VWF”: the “translocation velocities of human platelets” value in [5] is recorded as 3.2±0.1 μm/sec. Consider “murine plasma VWF^1326R>H: plasma VWF obtained from mice homozygous for VWF^1326R>H”, for which, in [5], the “human platelet accumulation on immobilized protein” value (“human platelet accumulation” below) was “comparable with its human counterpart” and the “translocation velocities of human platelets” value stood at 3.5±0.1 μm/sec.

Consider thrombin, for which the platelet aggregation in data set [4] (incubation of murine PRP with thrombin) is over 90%.

B1: murine rVWF-A1: recombinant A1 domain of murine VWF, residues 1238 to 1471 (protein)
chain: QEPGGLVAPPTDAPVSSTTPYVEDTPEPPLHNFYCSKLLDLVFLLDGSSMLSEAEFEVLKAFVVGMMERLHISQKRIRVAVVEYHDGSRAYLELKARKRPSELRRITSQIKYTGSQVASTSEVLKYTLFQIFGKIDRPEASHITLLLTASQEPPRMARNLVRYVQGLKKKKVIVIPVGIGPHASLKQIRLIEKQAPENKAFLLSGVDELEQRRDEIVSYLCDLAPEAPAPTQPP
modifications: left off: small tags and cut ends
Turning to B1, in data set [5], the “human platelet deposition as compared with same-species controls” value was 25%.

B2: murine rVWF-A1 1330E>G: murine rVWF-A1 with human residue at position 1330 (E>G) (protein)
chain: QEPGGLVAPPTDAPVSSTTPYVEDTPEPPLHNFYCSKLLDLVFLLDGSSMLSEAEFEVLKAFVVGMMERLHISQKRIRVAVVEYHDGSRAYLGLKARKRPSELRRITSQIKYTGSQVASTSEVLKYTLFQIFGKIDRPEASHITLLLTASQEPPRMARNLVRYVQGLKKKKVIVIPVGIGPHASLKQIRLIEKQAPENKAFLLSGVDELEQRRDEIVSYLCDLAPEAPAPTQPP
modifications: left off: small tags and cut ends
On to B2, for which the “human platelet accumulation” value in data set [5] was “failed to promote the interaction”.

B3: murine rVWF-A1 1370S>G: murine rVWF-A1 with human residue at position 1370, printed S>G (protein)
chain: QEPGGLVAPPTDAPVSSTTPYVEDTPEPPLHNFYCSKLLDLVFLLDGSSMLSEAEFEVLKAFVVGMMERLHISQKRIRVAVVEYHDGSRAYLELKARKRPSELRRITSQIKYTGSQVASTSEVLKYTLFQIFSKIDRPEASHITLLLTASQEPPRMARNLVRYVQGLKKKKVIVIPVGIGPHASLKQIRLIEKQAPENKAFLLSGVDELEQRRDEIVSYLCDLAPEAPAPTQPP
modifications: left off: small tags and cut ends
notes: murine rVWF-A1 with human residue at position 1370, printed S>G
Turning to B3, the “human platelet accumulation” value in data set [5] is listed as “failed to promote the interaction”.

B4: murine VWF-A1 1326R>H: recombinant mouse VWF-A1 domain with HIS for ARG at residue 1326 (protein)
chain: EDTPEPPLHNFYCSKLLDLVFLLDGSSMLSEAEFEVLKAFVVGMMERLHISQKRIRVAVVEYHDGSHAYLELKARKRPSELRRITSQIKYTGSQVASTSEVLKYTLFQIFGKIDRPEASHITLLLTASQEPPRMARNLVRYVQGLKKKKVIVIPVGIGPHASLKQIRLIEKQAPENKAFLLSGVDELEQRRDEIVSYLCDLAPEAPAPTQPPQVAHVTVSP
With B4, in data set [5], the “human platelet accumulation” value is “comparable to its wild-type (WT) human counterpart”. For the same molecule, the “reduction of mouse platelet adhesion” value in [7] is given as about 75%. Also, in [8], the “human platelet interactions with the protein substrate” value is recorded as “comparable to that of WT human VWF-A1”. In addition, in [9], the “increase of translocation velocities of murine platelets compared to WT mouse protein” value is given as about 7 fold and the “reduction of murine platelet adhesion compared to WT mouse protein” value is about 5 fold.
